# Patent US8791099B2, “Transition metal complexes of corroles for preventing cardiovascular diseases or disorders” (Technion Research and Development Foundation Ltd., priority 2007, dated 2014)
# What was measured:
# [1] = Decomposition of peroxynitrite, comparison with punicalagin; conditions: calculated from rate constants
# Description: For initial assessment of possible superiority of the metallocorroles relative to natural antioxidants, we have determined the effect of excess (45-135 μM) punicalagin—the active polyphenolic hydrolysable tannin ingredient of pomegranate juice (Tzulker et al., 2007), on decomposition of peroxynitrite (40 μM).
# J-774 macrophages = assay: Cholesterol efflux from J-774 macrophages by serum of treated E^0 mice; conditions: drinking water 0.04 mM (8 mg/Kg/day), 14 weeks
# Description: J-774 macrophages were incubated with [^3H]-labeled cholesterol for 1.5 h at 37° C. followed by cell wash in ice-cold PBS (3×) and further incubation in the presence of 15 μL mice serum for 3 h at 37° C. Cellular and medium [^3H]-labels were quantitated and HDL-mediated cholesterol efflux was calculated as the ratio of [^3H]-label in the medium/[^3H]-label in the medium+[^3H]-label in cells.
# [2] = tested on: mouse peritoneal macrophages (MPM); assay: Cholesterol efflux from MPM of treated E^0 mice; conditions: drinking water 0.04 mM (8 mg/Kg/day), 14 weeks
# Description: Mouse peritoneal macrophages were incubated with [^3H]-labeled cholesterol for 1 h at 37° C. followed by cell wash in ice-cold PBS (3×) and further incubation in the absence or presence of 100 μg of human HDL protein/ml for 3 h at 37° C. Cellular and medium [^3H]-labels were quantitated and HDL-mediated cholesterol efflux was calculated as the ratio of [^3H]-label in the medium/[^3H]-label in the medium+[^3H]-label in cells.
# [3] = tested on: mouse peritoneal macrophages (MPM); assay: Cholesterol synthesis by MPM of treated E^0 mice; conditions: drinking water 0.04 mM (8 mg/Kg/day), 14 weeks
# Description: Cellular cholesterol biosynthesis was assayed after incubation of macrophages (3×10^6 well^−1) overnight with DMEM containing 2% BSA followed by additional 3 h of incubation at 37° C. with [^3H]-acetate (3.3 μCi/ml). Cellular lipids were extracted with hexane:isopropanol (3:2, v:v), and the upper phase was dried under nitrogen. The lipids were then separated by TLC using an eluent of hexane:ether:acetic acid (130:30:1.5, v:v:v). Unesterified cholesterol spots were visualized by iodine vapor (by using standard for identification) and counted with β-counter.
Structure (SMILES),Minimal concentration required for reducing the half lifetime of peroxynitrite by 50% [1] [mol %],Increase in serum-mediated cholesterol efflux from J-774 macrophages (J-774 macrophages) [%],Increase in cholesterol efflux from the E^0 MPM [2] [%],Increase of cholesterol synthesis by MPMs [3] [%]
"O=C1O[C@H]2[C@@H]3OC(=O)c4cc(O)c(O)c(O)c4-c4c(O)c(O)c5oc(=O)c6c(c(O)c(O)c7oc(=O)c4c5c76)-c4c(cc(O)c(O)c4O)C(=O)OC[C@H]3OC(O)[C@@H]2OC(=O)c2cc(O)c(O)c(O)c2-c2c1cc(O)c(O)c2O (mixture of isomers) [punicalagin, reference compound]",250,,,
"COc1c(F)c(F)c(C2=C3C=CC(=N3)C(c3c(F)c(F)c(OC)c(F)c3F)=c3ccc4[n]3[Fe]3[n]5c(cc(S(=O)(=O)O)c5C=4c4c(F)c(F)c(OC)c(F)c4F)-c4c(S(=O)(=O)O)cc2[n]43)c(F)c1F [2-Fe, 5,10,15-tris(4-methoxy-2,3,5,6-tetrafluorophenyl)-2,17-bis(sulfonic acid)-corrolato iron(III)]",,9,14,8
